ChEMBL document CHEMBL1143840, “In vivo efficacy of anidulafungin and caspofungin against Candida glabrata and association with in vitro potency in the presence of sera” (Antimicrob Agents Chemother, 2007)
In brackets after ≈: the same amount, converted by molar mass. Several values for one entry are separate records, joined by “and”; a condition that tells them apart may be missing. Equal values may be shown once. Activity calls are given as the source filed them. No cut-off for these calls is given here. *1 amine or outer side, *2 acyl side, *3 side chain or, on linkers, in order; H or OH if unused. Where a SMILES comes first, the peptide text is derived from it. Bridges are numbered along the chain shown (N, C = ends). [ ]: non-standard residue; d: D form. The star is where a group is joined. pTerphenylCO(4''-OnC5H11) = CCCCCOc1ccc(-c2ccc(-c3ccc(C(=O)*)cc3)cc2)cc1; Orn(4R-OH,5R-OH) = O=C([C@H](C[C@@H](O)[C@@H](O)N[*:3])N[*:1])[*:2]; hTyr(3S-OH,4S-OH) = N[C@H](C(=O)O)[C@H](O)[C@@H](O)c1ccc(O)cc1; Pro(3S-OH,4S-Me) = C[C@H]1CN[C@H](C(=O)O)[C@H]1O; Hyp = O=C(O)[C@@H]1C[C@@H](O)CN1

Assays:
Nakaseomyces glabratus [1] = test: Antifungal activity against Candida glabrata 05-62 isolate in presence of 5% mouse serum after 24 hrs by broth microdilution method; assay type: functional
Nakaseomyces glabratus [2] = test: Antifungal activity against Candida glabrata 05-62 isolate in presence of 50% mouse serum after 24 hrs by broth microdilution method; assay type: functional
Nakaseomyces glabratus [3] = test: Antifungal activity against Candida glabrata 05-62 isolate in presence of 5% human serum after 24 hrs by broth microdilution method; assay type: functional, organism-based
Nakaseomyces glabratus [4] = test: Antifungal activity against Candida glabrata 05-62 isolate in presence of 50% human serum after 24 hrs by broth microdilution method; assay type: functional
Nakaseomyces glabratus [5] = test: Antifungal activity against Candida glabrata 05-761 isolate in presence of 5% human serum after 24 hrs by broth microdilution method; assay type: functional, organism-based
Nakaseomyces glabratus [6] = test: Antifungal activity against Candida glabrata 05-761 isolate after 24 hrs by broth microdilution method; assay type: functional
Nakaseomyces glabratus [7] = test: Antifungal activity against Candida glabrata 05-761 isolate in presence of 5% mouse serum after 24 hrs by broth microdilution method; assay type: functional
Nakaseomyces glabratus [8] = test: Antifungal activity against Candida glabrata 05-761 isolate in presence of 50% mouse serum after 24 hrs by broth microdilution method; assay type: functional
Nakaseomyces glabratus [9] = test: Antifungal activity against Candida glabrata 05-761 isolate in presence of 50% human serum after 24 hrs by broth microdilution method; assay type: functional
Nakaseomyces glabratus [10] = test: Antifungal activity against Candida glabrata 05-62 isolate after 24 hrs by broth microdilution method; assay type: functional
Nakaseomyces glabratus [11] = test: Antifungal activity against Candida glabrata 05-761 isolate infected ICR mouse kidney assessed as reduction of tissue fungal burden at 1 mg/kg, ip; assay type: functional, organism-based; design: dose 1 mg/kg
Nakaseomyces glabratus [12] = test: Antifungal activity against Candida glabrata 05-761 isolate infected ICR mouse kidney assessed as reduction of tissue fungal burden at 0.5 mg/kg, ip; assay type: functional, organism-based; design: dose 0.5 mg/kg
Nakaseomyces glabratus [13] = test: Antifungal activity against Candida glabrata 05-761 isolate infected ICR mouse kidney assessed as reduction of tissue fungal burden at 5 mg/kg, ip; assay type: functional, organism-based; design: dose 5 mg/kg
Nakaseomyces glabratus [14] = test: Antifungal activity against Candida glabrata 05-761 isolate assessed as decrease in fungal turbidity by microdilution method; assay type: functional
Nakaseomyces glabratus [15] = test: Antifungal activity against Candida glabrata 05-761 isolate assessed as decrease in fungal turbidity in presence of 5% mouse serum by microdilution method; assay type: functional
Nakaseomyces glabratus [16] = test: Antifungal activity against Candida glabrata 05-761 isolate assessed as decrease in fungal turbidity in presence of 50% mouse serum by microdilution method; assay type: functional
Nakaseomyces glabratus [17] = test: Antifungal activity against Candida glabrata 05-62 isolate assessed as decrease in fungal turbidity in presence of 5% human serum by microdilution method; assay type: functional
Nakaseomyces glabratus [18] = test: Antifungal activity against Candida glabrata 05-62 isolate after 2 hrs in presence of 5% mouse serum by XTT reduction assay; assay type: functional
Nakaseomyces glabratus [19] = test: Antifungal activity against Candida glabrata 05-62 isolate after 2 hrs in presence of 50% mouse serum by XTT reduction assay; assay type: functional
Nakaseomyces glabratus [20] = test: Antifungal activity against Candida glabrata 05-62 isolate assessed as decrease in fungal turbidity in presence of 50% human serum by microdilution method; assay type: functional
Nakaseomyces glabratus [21] = test: Antifungal activity against Candida glabrata 05-761 isolate assessed as decrease in fungal turbidity in presence of 5% human serum by microdilution method; assay type: functional
Nakaseomyces glabratus [22] = test: Antifungal activity against Candida glabrata 05-761 isolate assessed as decrease in fungal turbidity in presence of 50% human serum by microdilution method; assay type: functional
Nakaseomyces glabratus [23] = test: Antifungal activity against Candida glabrata 05-761 isolate after 22 hrs by XTT assay; assay type: functional, organism-based
Nakaseomyces glabratus [24] = test: Antifungal activity against Candida glabrata 05-62 isolate after 22 hrs by XTT assay; assay type: functional, organism-based
Nakaseomyces glabratus [25] = test: Antifungal activity against Candida glabrata 05-62 isolate in presence of 5% human serum after 22 hrs by XTT assay; assay type: functional, organism-based
[26] = Nakaseomyces glabratus, 24 h, read-out: MIC

CC[C@H](C)C[C@H](C)CCCCCCCCC(=O)N[C@H]1C[C@@H](O)[C@@H](NCCN)NC(=O)[C@@H]2[C@@H](O)CCN2C(=O)[C@H]([C@H](O)CCN)NC(=O)[C@H]([C@H](O)[C@@H](O)c2ccc(O)cc2)NC(=O)[C@@H]2C[C@@H](O)CN2C(=O)[C@H]([C@@H](C)O)NC1=O [CASPOFUNGIN]
MIC (Nakaseomyces glabratus [1]): > 32 µg/mL | MIC (Nakaseomyces glabratus [2]): > 32 µg/mL | IC50 (Nakaseomyces glabratus [3]): 1.4 µg/mL | IC90 (Nakaseomyces glabratus [3]): > 32 µg/mL | MIC (Nakaseomyces glabratus [3]): > 32 µg/mL | MIC (Nakaseomyces glabratus [4]): > 32 µg/mL | IC50 (Nakaseomyces glabratus [5]): 0.29 µg/mL | IC90 (Nakaseomyces glabratus [5]): 0.33 µg/mL | MIC (Nakaseomyces glabratus [5]): 0.5 µg/mL | MIC (Nakaseomyces glabratus [6]; [26]): 2 µg/mL (≈ 1.83 µM) | MIC (Nakaseomyces glabratus [7]): 1 µg/mL | MIC (Nakaseomyces glabratus [8]): 2 µg/mL | MIC (Nakaseomyces glabratus [9]): 1 µg/mL | MIC (Nakaseomyces glabratus [10]; [26]): > 32 µg/mL | Activity (Nakaseomyces glabratus [11]): Active | Activity (Nakaseomyces glabratus [12]): Active | Activity (Nakaseomyces glabratus [13]): inactive | MIC (Nakaseomyces glabratus [14]): 1 µg/mL (≈ 0.915 µM) | MIC (Nakaseomyces glabratus [15]): 1 µg/mL | MIC (Nakaseomyces glabratus [16]): 2 µg/mL | MIC (Nakaseomyces glabratus [17]): 2 µg/mL | MIC (Nakaseomyces glabratus [18]): 4 µg/mL | MIC (Nakaseomyces glabratus [19]): 8 µg/mL | MIC (Nakaseomyces glabratus [20]): 4 µg/mL | MIC (Nakaseomyces glabratus [21]): 0.25 µg/mL | MIC (Nakaseomyces glabratus [22]): 1 µg/mL | IC50 (Nakaseomyces glabratus [23]): 1.1 µg/mL (≈ 1.01 µM) | IC90 (Nakaseomyces glabratus [23]): 1.6 µg/mL (≈ 1.46 µM) | IC50 (Nakaseomyces glabratus [24]): 1.2 µg/mL (≈ 1.1 µM) | IC90 (Nakaseomyces glabratus [24]): > 32 µg/mL | IC50 (Nakaseomyces glabratus [25]): 1.4 µg/mL | IC90 (Nakaseomyces glabratus [25]): > 32 µg/mL

CCCCCOc1ccc(-c2ccc(-c3ccc(C(=O)N[C@H]4C[C@@H](O)[C@@H](O)NC(=O)[C@@H]5[C@@H](O)[C@@H](C)CN5C(=O)[C@H]([C@@H](C)O)NC(=O)[C@H]([C@H](O)[C@@H](O)c5ccc(O)cc5)NC(=O)[C@@H]5C[C@@H](O)CN5C(=O)[C@H]([C@@H](C)O)NC4=O)cc3)cc2)cc1 [ANIDULAFUNGIN] ({pTerphenylCO(4''-OnC5H11)}-[Orn(4R-OH,5R-OH)]T[Hyp][hTyr(3S-OH,4S-OH)]T[Pro(3S-OH,4S-Me)]; lactam 1-C)
MIC (Nakaseomyces glabratus [1]): 4 µg/mL | MIC (Nakaseomyces glabratus [2]): 8 µg/mL | IC50 (Nakaseomyces glabratus [3]): 1.7 µg/mL | IC90 (Nakaseomyces glabratus [3]): 3.1 µg/mL | MIC (Nakaseomyces glabratus [3]): 2 µg/mL | MIC (Nakaseomyces glabratus [4]): 16 µg/mL | IC50 (Nakaseomyces glabratus [5]): 0.31 µg/mL | IC90 (Nakaseomyces glabratus [5]): 0.39 µg/mL | MIC (Nakaseomyces glabratus [5]): 0.5 µg/mL | MIC (Nakaseomyces glabratus [6]): 0.125 µg/mL and 0.06 µg/mL | MIC (Nakaseomyces glabratus [7]): 0.5 µg/mL | MIC (Nakaseomyces glabratus [8]): 1 µg/mL | MIC (Nakaseomyces glabratus [9]): 2 µg/mL | MIC (Nakaseomyces glabratus [10]): 0.25 µg/mL (≈ 0.219 µM) | MIC (Nakaseomyces glabratus [10]; [26]): 0.5 µg/mL (≈ 0.438 µM) | Activity (Nakaseomyces glabratus [11]): Active | Activity (Nakaseomyces glabratus [12]): Active | Activity (Nakaseomyces glabratus [13]): inactive | MIC (Nakaseomyces glabratus [14]): 0.06 µg/mL (≈ 0.0526 µM) | MIC (Nakaseomyces glabratus [15]): 0.5 µg/mL | MIC (Nakaseomyces glabratus [16]): 1 µg/mL | MIC (Nakaseomyces glabratus [17]): 2 µg/mL | MIC (Nakaseomyces glabratus [18]): 4 µg/mL | MIC (Nakaseomyces glabratus [19]): 8 µg/mL | MIC (Nakaseomyces glabratus [20]): 8 µg/mL | MIC (Nakaseomyces glabratus [21]): 0.5 µg/mL | MIC (Nakaseomyces glabratus [22]): 1 µg/mL | IC50 (Nakaseomyces glabratus [23]): 0.05 µg/mL (≈ 0.0438 µM) | IC90 (Nakaseomyces glabratus [23]): 0.16 µg/mL (≈ 0.14 µM) | IC50 (Nakaseomyces glabratus [24]): 0.31 µg/mL (≈ 0.272 µM) | IC90 (Nakaseomyces glabratus [24]): 0.41 µg/mL (≈ 0.36 µM) | IC50 (Nakaseomyces glabratus [25]): 1.7 µg/mL | IC90 (Nakaseomyces glabratus [25]): 3.1 µg/mL
